# Measured values as given in US6528484B1, “Insecticidal protein toxins from Photorhabdus” (priority 1993, dated 2003).
# Read-outs that look alike come from different tables or passages of the source. Where a SMILES comes first, the peptide text is derived from it. [ ]: non-standard residue; d: D form. The star is where a group is joined. Sta = CC(C)C[C@H](N)[C@@H](O)CC(=O)O; Isovaleryl = CC(C)CC(=O)*
# Assays:
# [1] = tested on: protease(s) found in the Photorhabdus broth; format: biochemical, Photorhabdus luminescens; details: for Corrected Flu. Units (Fluorescence Units - background) / Percent Inhibition relative to protease activity at pH 8.0: pH 8
# Procedure: Protease Inhibition and Classification Assays: Protease assays were performed using FITC-casein dissolved in water as substrate (0.08% final assay concentration). Proteolysis reactions were performed at 25° C. for 1 h in the appropriate buffer with 25 μl of Photorhabdus broth (150 μl total reaction volume). Samples were also assayed in the presence and absence of dithiothreitol. After incubation, an equal volume of 12% trichloroacetic acid was added to precipitate undigested protein. Following precipitation for 0.5 h and subsequent centrifugation, 100 μl of the supernatant was placed into a 96-well microtiter plate and the pH of the solution was adjusted by addition of an equal volume of 4N NaOH. Proteolysis was then quantitated using a Fluoroskan II fluorometric plate reader at excitation and emission wavelengths of 485 and 538 nm, respectively. Protease activity was tested over a range from pH 5.0-10.0 in 0.5 units increments. The following buffers were used at 50 mM final concentration: sodium acetate (pH 5.0-6.5); Tris-HCL (pH 7.0-8.0); and bis-Tris propane (pH 8.5-10.0). […] The protease inhibitors used included E-64 (L-trans-expoxysaccinylleucylamido[4-,-guanidino]-butane), 3,4 dichloroisocoumarin, Leupeptin, pepstatin, amastatin, ethylenediaminetetraacetic acid (EDTA) and 1,10 phenanthroline.
# [2] = tested on: neonate Diabrotica undecimpunctata howardi (Southern corn rootworm, SCR); experiment: SCR bioassay on artificial diet (Example 13; used in Examples 14-16); format: in vivo
# [3] = tested on: 58 kDa protease; experiment: Inhibition of purified 58 kDa protease; format: biochemical, Photorhabdus luminescens
# Procedure: (§1) Activity assays of the different proteases in W-14 day three culture broth were performed using FITC-casein dissolved in water as substrate (0.02% final assay concentration). Proteolysis experiments were performed at 37° C. for 0-0.5 h in 0.1M Tris-HCl (pH 8.0) with different protein fractions in a total volume of 0.15 ml. Reactions were terminated by addition of an equal volume of 12% trichloroacetic acid (TCA) dissolved in water. After incubation at room temperature for 0.25 h, samples were centrifuged at […] for 0.25 h and 0.10 ml aliquots were removed and placed into 96-well microtiter plates. The solution was then neutralized by the addition of an equal volume of 2 N sodium hydroxide, followed by quantitation using a Fluoroskan II fluorometric plate reader with excitation and emission wavelengths of 485 and 538 nm, respectively. Activity measurements were performed using FITC-Casein with different protease concentrations at 37° C. for 0-10 min. A unit of activity was arbitrarily defined as the amount of enzyme needed to produce 1000 fluorescent units/min and specific activity was defined as units/mg of protease.
# (§2) Inhibition studies were performed using two zinc-metalloprotease inhibitors; 1,10 phenanthroline and N-(a-rhamnopyranosyloxyhydroxyphosphinyl)-Leu-Trp(phosphoramidon) with stock solutions of the inhibitors dissolved in 100% ethanol and water, respectively. […]
# [4] = tested on: 41/38 kDa protease; experiment: Inhibition of purified 41/38 kDa protease; format: biochemical, Photorhabdus luminescens
# Procedure: as §1, §2
# [5] = tested on: protease activity of three day W-14 crude broth; experiment: FITC-casein protease assay, three day W-14 crude broth; format: biochemical, Photorhabdus luminescens; details: inhibitor 0.5-1.0 mg/ml per reaction
# Procedure: as §1, §2
# [6] = inhibitor 0.5 μg/μl final concentration, Day 1 production broth
compound,measurement,setting,value
CC(=O)N[C@@H](CC(C)C)C(=O)N[C@@H](CC(C)C)C(=O)N[C@H](C=O)CCCNC(=N)N [Leupeptin],Corrected Flu. Units (Fluorescence Units - background),[1]; [6],13074 Fluorescence Units
same,Percent Inhibition relative to protease activity at pH 8.0,[1]; [6],0%
"O=c1oc(Cl)c(Cl)c2ccccc12 [3,4 Dichloroisocoumarin, 3,4 dichloroisocoumarin]",Corrected Flu. Units (Fluorescence Units - background),[1]; [6],7956 Fluorescence Units
same,Percent Inhibition relative to protease activity at pH 8.0,[1]; [6],39%
toxin A: 860 kDa complex purified from activity peak A; major peptides TcdAii and TcdAiii,activity against Southern corn root worm,[2]; in vivo,active
"CC(C)C[C@H](NC(=O)[C@H]1O[C@@H]1C(=O)O)C(=O)NCCCCN=C(N)N (relative stereo) [Strain E-64, L-trans-expoxysaccinylleucylamido[4-,-guanidino]-butane]",Corrected Flu. Units (Fluorescence Units - background),[1],14259 Fluorescence Units
same,Percent Inhibition relative to protease activity at pH 8.0,[1],0%
"O[C@H](CS)[C@H](O)CS (racemic) [DTT, dithiothreitol]",effect on protease activity,[1]; samples assayed in presence and absence of dithiothreitol,did not have any effect
"CC(C)C[C@H](NP(=O)(O)O[C@@H]1O[C@@H](C)[C@H](O)[C@@H](O)[C@H]1O)C(=O)N[C@@H](Cc1c[nH]c2ccccc12)C(=O)O [phosphoramidon, N-(a-rhamnopyranosyloxyhydroxyphosphinyl)-Leu-Trp]",inhibition of purified 58 kDa protease,[3],insensitive
same,inhibition of purified 41/38 kDa protease,[4],inhibited
same,reduction of protease activity of three day W-14 crude broth,[5]; not further reduced with additional inhibitor,about 56%
"CC(C)C[C@@H](N)[C@H](O)C(=O)N[C@H](C(=O)N[C@H](C(=O)N[C@@H](CC(=O)O)C(=O)O)C(C)C)C(C)C [Amastatin, amastatin]",Corrected Flu. Units (Fluorescence Units - background),[1]; [6],12474 Fluorescence Units
same,Percent Inhibition relative to protease activity at pH 8.0,[1]; [6],4%
"c1cnc2c(c1)ccc1cccnc12 [1,10 Phenanthroline, 1,10 phenanthroline]",inhibition of all protease activity of crude broth,[1]; final concentration of 50 μg,complete inhibition
same,IC50,[1]; in 100 μl of a 2 mg/ml crude broth solution,5 µg
same,Corrected Flu. Units (Fluorescence Units - background),[1]; [6],15 Fluorescence Units
same,Percent Inhibition relative to protease activity at pH 8.0,[1]; [6],99%
same,inhibition of purified 58 kDa protease,[3],completely inhibited
same,inhibition of purified 41/38 kDa protease,[4],completely inhibited
same,effect on protease activity of three day W-14 crude broth,[5],complete elimination of all protease activity
toxin B: 860 kDa complex purified from activity peak B; major peptides TcbAii and TcbAiii (or intact TcbA),LD50 against SCR after SCR gut content treatment,"[2]; 40 μg toxin with 50 μl SCR gut content, 37° C. overnight",about 70 ng
same,fold increase of SCR activity by SCR gut content treatment,[2]; LD50 treated against untreated,10 fold
same,LD50 against SCR,[2]; in vivo,around 700 ng
same,activity against Southern corn root worm,[2]; in vivo,active
same,toxin activity after protease K treatment,[2]; separate experiment,completely eliminated toxin activity
"CC(C)CC(=O)N[C@H](C(=O)N[C@H](C(=O)N[C@@H](CC(C)C)[C@@H](O)CC(=O)N[C@@H](C)C(=O)N[C@@H](CC(C)C)[C@@H](O)CC(=O)O)C(C)C)C(C)C [Pepstatin, pepstatin] (Isovaleryl-VV[Sta]A[Sta]-OH)",Corrected Flu. Units (Fluorescence Units - background),[1]; [6],13441 Fluorescence Units
same,Percent Inhibition relative to protease activity at pH 8.0,[1]; [6],0%
"TcbA: peptide TcbA, SEQ ID NO:12; in Table 24 bioassay lines the TcbA-enriched toxin B complex fraction of W-14 broth","SCR Weight (mg/insect), average weight of live insect after 5 days on diet",[2]; 38 kDa protease treatment,0.1 mg/insect
same,LD50 (μg protein),"[2]; 38 kDa protease treatment, 37° C., 90 min",0.52 μg protein
same,LD50 (μg protein),[2]; Control (protease omitted),2.1 μg protein
same,"SCR Weight (mg/insect), average weight of live insect after 5 days on diet",[2]; Control (protease omitted),0.2 mg/insect
same,fold increase of SCR insecticidal activity by 38 kDa protease treatment,[2]; comparison of activity in several dilutions,3 to 4 fold
